Assay results from US10653687B2, “Methods and pharmaceutical compostions for treating rhabdomyolysis” (INSERM (INSTITUT NATIONAL DE LA SANTE ET DE LA RECHERCHE …, priority 2015, dated 2020).
“Also recorded” adds a separate entry of the source.

Experiments:
myoblasts = assay: Intracellular calcium mobilization in myoblasts (Fluo-4 Assay); assay type: cell-based, human; conditions: for intracellular calcium on stimulation with the substance: control and patient myoblasts, live imaging; for intracellular calcium mobilization in patient myoblasts stimulated with CpG-A: pre-treatment, concentration not given
Experimental: Intracellular calcium mobilization was measured in myoblasts using the Fluo-4 Assay from Invitrogen according to the manufacturer's directions and as defined previously. Cells were loaded with 1 μm Fluo-4 for 30 min at 37° C. in 5% CO2/95% O2, as described previously […]. The plates were then transferred to a temperature-controlled stage (Harvard Apparatus, Holliston, Mass., USA) on an Olympus IX-70 inverted microscope. Cultures were visualized using a 40×0.7 numerical aperture fluorite water-immersion objective (TC-SP8 Leica).
To evaluate the link between muscle damage and inflammation, we explored TLR ligand involvement in the control of intracellular Ca2+ dynamics, as its intracellular increase is the hallmark of rhabdomyolysis. The levels of intracellular Ca2+ recorded using live imaging of resting cells were equivalent among control and patient cells. […] This effect observed with patient cells was specific for TLR9 ligands since no response was observed following exposure to LPS or Imiquimod in both patient and control cells. Pre-treatment with 10 μM of chloroquine or ODN-i abolished intracellular calcium mobilization in patient cells in presence of CpG-A completely. […] To obtain additional evidence for the role of inflammation in muscle damage, we measured ATP production in myoblasts following stimulation with CpG-A; we found an impairment of ATP production following stimulation with inflammatory stimuli in patient cells compared to control. To confirm the deleterious effect of TLR9 ligands in patient myoblasts, we incubated myoblasts with increasing doses of CpG-A and measured cellular mortality at different time point as accessed by the viability assay. Myoblasts from patients were exclusively sensitive to TLR9 ligands.

TLR9 = biological target: T1, TLR9 (Homo sapiens, UniProt Q9NR96); assay: IL-6 secretion of myoblasts stimulated with CpG-A (TLR9 ligand) after pre-treatment with TLR9 antagonists; assay type: cell-based; conditions: myoblasts pre-treated with the substance, then stimulated with CpG-A
T1 construct: endogenous in cells; host or cells: primary human CD56+ myoblasts from muscle biopsies
T1 sequence (Q9NR96 26-1032): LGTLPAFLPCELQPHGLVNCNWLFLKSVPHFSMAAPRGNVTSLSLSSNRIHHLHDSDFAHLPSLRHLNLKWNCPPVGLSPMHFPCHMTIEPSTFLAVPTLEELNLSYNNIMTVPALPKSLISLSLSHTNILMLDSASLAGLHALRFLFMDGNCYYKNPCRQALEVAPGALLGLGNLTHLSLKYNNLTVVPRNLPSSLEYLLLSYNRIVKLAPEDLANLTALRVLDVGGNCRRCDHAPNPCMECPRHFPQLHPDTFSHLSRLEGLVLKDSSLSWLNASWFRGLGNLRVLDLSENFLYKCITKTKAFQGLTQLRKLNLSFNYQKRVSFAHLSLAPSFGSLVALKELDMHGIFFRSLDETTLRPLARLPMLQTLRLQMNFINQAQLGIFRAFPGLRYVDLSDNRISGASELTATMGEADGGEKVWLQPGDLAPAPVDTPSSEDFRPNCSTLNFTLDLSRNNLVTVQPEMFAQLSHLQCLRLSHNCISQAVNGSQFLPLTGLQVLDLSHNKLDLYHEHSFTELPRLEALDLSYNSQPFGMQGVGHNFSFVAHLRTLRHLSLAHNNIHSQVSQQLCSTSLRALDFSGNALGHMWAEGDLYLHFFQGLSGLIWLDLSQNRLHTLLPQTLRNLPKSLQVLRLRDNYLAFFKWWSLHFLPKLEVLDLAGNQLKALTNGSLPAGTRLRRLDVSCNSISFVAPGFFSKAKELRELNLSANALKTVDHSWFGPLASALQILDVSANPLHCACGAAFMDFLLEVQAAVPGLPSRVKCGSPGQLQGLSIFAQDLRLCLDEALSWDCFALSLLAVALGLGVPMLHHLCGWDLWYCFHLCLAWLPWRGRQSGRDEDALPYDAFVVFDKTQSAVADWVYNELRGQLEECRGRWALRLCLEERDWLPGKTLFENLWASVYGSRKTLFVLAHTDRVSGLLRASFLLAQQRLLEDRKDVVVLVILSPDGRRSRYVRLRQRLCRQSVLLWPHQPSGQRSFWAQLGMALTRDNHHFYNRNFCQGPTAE
Experimental: Human primary myoblasts were isolated and grown as described. CD56+ myoblasts were isolated by flow cytometry cell sorting using an anti CD56-APC conjugated antibody (e. Biosciences) and routinely maintained in F10 medium supplemented with 20% Fetal Bovine Serum (FBS).
After 12 hours of TLR stimulation of DC at 37° C. in humidified air containing 5% CO2, the concentrations of human IL-8, IL-6, tumor necrosis factor (TNF)-α, IL-1β, IL-10, IL-4, Monocyte Chemoattractant Protein-1 (MCP-1), RANTES (Regulated on Activation, Normal T cell Expressed and Secreted), and Macrophage Inflammatory Protein (MIP)-1-α and β in the culture supernatants were measured with a human cytokine Cytometric Bead Assay (CBA) kit (BD Biosciences, San Jose, Calif.) in accordance with the manufacturer's instructions. In brief, 50 μL of supernatant was mixed with 50 μL of mixed capture beads, and a standard curve was generated. After 3 hours of incubation at room temperature, the samples were washed and suspended in Phosphate-Buffered Saline (PBS) and then analyzed by flow cytometry (ARIA II; BD Biosciences) with CBA Analysis Software (FCAP Array version 3.0; Soft Flow, St Louis Park, Minn.). The results are expressed in picograms per milliliter. […]

[1] = Treatment of lipin-1 patients with hydroxychloroquine: muscle pain and serum cytokines; assay type: in vivo, human; conditions: two patients, 6 mg/Kg/day, at three months of treatment
Experimental: Two patients were treated with hydroxychloroquine (Plaquenil®, 6 mg/Kg/day).

Compound	intracellular calcium on stimulation with the substance (myoblasts)	intracellular calcium mobilization in patient myoblasts stimulated with CpG-A (myoblasts)	secretion of IL-6 after stimulation by CpG-A (TLR9)	further results
CC(C)Cn1cnc2c(N)nc3ccccc3c21 [Imiquimod, imiquimod]	no response			
CCN(CC)CCCC(C)Nc1ccnc2cc(Cl)ccc12 (stereo not shown) [chloroquine]		abolish	attenuate or abolish; also recorded: abolish	intracellular calcium mobilization in presence of CpG-A (myoblasts; patient cells (myoblasts), pre-treatment with 10 μM): abolished
O=C1CN(/N=C/c2ccc(-c3ccc([N+](=O)[O-])cc3)o2)C(O)=N1 [dantrium]				elevation of intracellular calcium (myoblasts; patient myoblasts, chelation of intracellular calcium): inhibited
CCN(CCO)CCCC(C)Nc1ccnc2cc(Cl)ccc12 (stereo not shown) [hydroxychloroquine]				muscle pain [1]: decrease; pro-inflammatory cytokines (IL-8, RANTES, MCP-1) in sera [1]: dramatic decrease
C[C@H](CCC(=O)O)C[C@H](C)C[C@H](C)C(=O)/C=C(\O)[C@H](C)C[C@H](C)C/C=C/[C@@H](C)[C@@H](O)[C@@H](C)[C@@H](O)C[C@@H]1CC[C@@](C)([C@H]2CC[C@@](C)([C@@H](C)O)O2)O1 [ionomycin]	induced a rapid calcium flux			
COc1cc(NC(C)CCCN)c2ncccc2c1 (stereo not shown) [primaquine]		abolish	attenuate or abolish; also recorded: abolish	
